Results published in patent US20230147257A1 (DONG-A ST CO., LTD., priority 2020, published 2023).
Where a name gives a salt, the structure may show the parent alone.

Each compound was assayed against T1, AhR (Homo sapiens, UniProt P35869) (assay: In vitro assay 1: XRE-luciferase reporter assay, antagonism in human cell line (HepG2)). Settings: not given.
T1 construct: host or cells: HepG2
T1 sequence (P35869 11-848): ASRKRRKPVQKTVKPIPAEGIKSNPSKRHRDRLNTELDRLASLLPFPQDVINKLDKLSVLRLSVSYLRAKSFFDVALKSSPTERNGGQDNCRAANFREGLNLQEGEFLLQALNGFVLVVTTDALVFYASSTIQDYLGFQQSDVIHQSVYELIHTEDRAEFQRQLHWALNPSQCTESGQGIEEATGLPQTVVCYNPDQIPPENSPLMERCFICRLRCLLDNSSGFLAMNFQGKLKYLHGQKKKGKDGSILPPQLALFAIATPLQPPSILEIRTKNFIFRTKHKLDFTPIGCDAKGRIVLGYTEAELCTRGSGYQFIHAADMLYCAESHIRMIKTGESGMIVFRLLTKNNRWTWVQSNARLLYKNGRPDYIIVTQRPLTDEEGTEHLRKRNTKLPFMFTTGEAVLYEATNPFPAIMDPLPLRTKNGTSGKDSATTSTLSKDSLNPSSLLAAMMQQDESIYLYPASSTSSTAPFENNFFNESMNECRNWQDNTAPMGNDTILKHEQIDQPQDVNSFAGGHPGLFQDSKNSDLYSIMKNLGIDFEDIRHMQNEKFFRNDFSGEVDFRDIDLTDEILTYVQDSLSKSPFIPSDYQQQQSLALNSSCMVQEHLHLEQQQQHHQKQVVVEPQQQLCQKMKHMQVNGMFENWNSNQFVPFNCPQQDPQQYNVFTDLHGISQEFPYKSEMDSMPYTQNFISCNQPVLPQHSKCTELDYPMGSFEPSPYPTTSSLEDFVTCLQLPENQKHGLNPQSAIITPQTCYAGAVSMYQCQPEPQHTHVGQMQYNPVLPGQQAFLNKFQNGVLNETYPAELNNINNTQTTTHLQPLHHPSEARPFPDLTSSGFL
Assay type: cell-based
Excerpt: In Vitro XRE-Luciferase Reporter Assay (In Vitro Assay 1, 2, 3)
AhR activation leads the induction of target gene expression such as CYP1A1 and CYP1B1 by AhR binding to AhR-responsive DNA elements also known as xenobiotics responsive elements (XRE). The assay for measuring AhR activity herein is the luciferase assay using cell lines transfected with luciferase reporter plasmid containing XREs at the upstream of the reporter gene. Cells transfected with XRE-luciferase reporter (XRE-Luc) plasmid drive luciferase activity reflecting activation and inhibition of AhR in the cells. In addition to transfection with XRE-reporter vector, cells were co-transfected with Nano-luciferase reporter gene construct (Nano-Luc) containing constitutively active promoter as internal control. Kynurenine (an endogenous AhR agonist) was used to stimulate cells to test antagonistic properties of the compounds. The half-maximal inhibitory concentration (IC50) or half-maximal effective concentration (EC50) value was calculated using nonlinear regression (four parameters) with Prism8.0 software (GraphPad).
In Vitro Assay 1: Antagonism in Human Cell Line
HepG2 (human hepatoma cell line) cell line with a XRE-luciferase reporter either transiently or stably (Invivogen) were plated in complete medium and incubated at 37° C. in a CO2 incubator. After 24 hours, cells were treated with kynurenine (50* or 200 μM) alone (negative control) or with test compounds for 6 hours. Luciferase activity was measured with a commercial kit such as the Promega Luciferase kit or other reagents for measuring luciferase activity. Relative luciferase activity (Firefly/Nano-Luc) was used to calculate IC50 values. The relative luciferase activity was further normalized with kynurenine alone group as the maximum control and the vehicle group as the minimum control. (IC50 values are grouped as A, B, C and D, whereby A: IC50<0.01 μM; B: 0.01<IC50<0.1 μM; C: 0.1<IC50<1.0 μM; D: IC50>1.0 μM)

SMILES | IC50 [nM]
CCOP(=O)(OCC)OCC(C)n1cnc2c(-c3cccnc3)nc(-c3ccc(Cl)cc3)cc2c1=O (centres unmarked) [Example 47, 2-(6-(4-chlorophenyl)-4-oxo-8-(pyridin-3-yl)pyrido[3,4-d]pyrimidin-3(4H)-yl)propyl diethyl phosphate] | 10 to 100

Same assay, conditions: HepG2 XRE-luciferase, cells treated with kynurenine 200 μM (no *), 6 hours; read-out: Assay 1: AhR-Luc Human Antagonism (IC50)

SMILES | IC50 [nM]
CC(C(=O)O)n1cnc2c(-c3cccnc3)nc(-c3ccc(C(F)(F)F)cc3)cc2c1=O (centres unmarked) [Example 84, 2-(4-oxo-8-(pyridin-3-yl)-6-(4-(trifluoromethyl)phenyl)pyrido[3,4-d]pyrimidin-3(4H)-yl)propanoic acid, 2,2,2-trifluoroacetic acid salt] | 100 to 1000
CC(CN)n1cnc2c(-c3cccnc3)nc(-c3ccc(C(F)(F)F)cc3)cc2c1=O (centres unmarked) [Example 85, 3-(1-aminopropan-2-yl)-8-(pyridin-3-yl)-6-(4-(trifluoromethyl)phenyl)pyrido[3,4-d]pyrimidin-4(3H)-one] | 10 to 100
CN1CCN(c2ccc(-c3cc4c(=O)n(CC(O)CO)cnc4c(-c4cccnc4)n3)cc2)CC1 (centres unmarked) [Example 68, 3-(2,3-dihydroxypropyl)-6-(4-(4-methylpiperazin-1-yl)phenyl)-8-(pyridin-3-yl)pyrido[3,4-d]pyrimidin-4(3H)-one] | > 1000
CC(CO)N1CNc2c(cc(-c3ccc(Cl)cc3)nc2-c2cccnc2)C1=O (centres unmarked) [Example 60] | 10 to 100
CC(CNS(C)(=O)=O)n1cnc2c(-c3cccnc3)nc(-c3ccc(N4CCOCC4)cc3)cc2c1=O (centres unmarked) [Example 91, N-(2-(6-(4-morpholinophenyl)-4-oxo-8-(pyridin-3-yl)pyrido[3,4-d]pyrimidin-3(4H)-yl)propyl)methanesulfonamide] | < 10
CC(=O)OC(C)(C)Cn1cnc2c(-c3cccnc3)nc(-c3ccc(C(F)(F)F)cc3)cc2c1=O [Example 37, 2-methyl-1-(4-oxo-8-(pyridin-3-yl)-6-(4-(trifluoromethyl)phenyl)pyrido[3,4-d]pyrimidin-3(4H)-yl)propan-2-yl acetate] | < 10
CC(C)(O)Cn1cnc2c(-c3cccnc3)nc(-c3ccc(C(F)(F)F)cc3)cc2c1=O [Example 39, 3-(2-hydroxy-2-methylpropyl)-8-(pyridin-3-yl)-6-(4-(trifluoromethyl)phenyl)pyrido[3,4-d]pyrimidin-4(3H)-one] | > 1000
CC(=O)NCC(C)n1cnc2c(-c3cccnc3)nc(-c3ccc(N4CCOCC4)cc3)cc2c1=O (centres unmarked) [Example 92, N-(2-(6-(4-morpholinophenyl)-4-oxo-8-(pyridin-3-yl)pyrido[3,4-d]pyrimidin-3(4H)-yl)propyl)acetamide] | 10 to 100

The next lines start with the values.

IC50 [nM] | SMILES
< 10 | Cn1cc(-c2nc(-c3ccc(C(F)(F)F)cc3)cc3c(=O)n(CC(O)C(F)(F)F)cnc23)cn1 (centres unmarked) [Example 22, 8-(1-methyl-1H-pyrazol-4-yl)-3-(3,3,3-trifluoro-2-hydroxypropyl)-6-(4-(trifluoromethyl)phenyl)pyrido[3,4-d]pyrimidin-4(3H)-one]
< 10 | O=c1c2cc(-c3ccc(C(F)(F)F)cc3)nc(-c3cccnc3)c2ncn1[C@H]1CC[C@@H](O)C1 [Example 33, 3-((1S,3R)-3-hydroxycyclopentyl)-8-(pyridin-3-yl)-6-(4-(trifluoromethyl)phenyl)pyrido[3,4-d]pyrimidin-4(3H)-one]
< 10 | O=c1c2cc(-c3ccc(Cl)cc3)nc(-c3cccnc3)c2ncn1C1CCC(O)CC1 (centres unmarked) [Example 58, 6-(4-chlorophenyl)-3-((1s,4s)-4-hydroxycyclohexyl)-8-(pyridin-3-yl)pyrido[3,4-d]pyrimidin-4(3H)-one]
< 10 | CC(CO)n1cnc2c(-c3cccnc3)nc(-c3ccc(-c4ccc(Cl)cc4)cc3)cc2c1=O (centres unmarked) [Example 74, 6-(4′-chloro-[1,1′-biphenyl]-4-yl)-3-(1-hydroxypropan-2-yl)-8-(pyridin-3-yl)pyrido[3,4-d]pyrimidin-4(3H)-one]
< 10 | Cn1cc(-c2nc(-c3ccc(C(F)(F)F)cc3)cc3c(=O)n(-c4cccc(O)c4)cnc23)cn1 [Example 27, 3-(3-hydroxyphenyl)-8-(1-methyl-1H-pyrazol-4-yl)-6-(4-(trifluoromethyl)phenyl)pyrido[3,4-d]pyrimidin-4(3H)-one]
